This is an account of results in patent publication US20230250064A1, “PREPARATION METHOD FOR FUSED PYRAZOLE-TYPE COMPOUND” (SHANGHAI MEIYUE BIOTECH DEVELOPMENT CO., LTD., priority 2020, published 2023).

This assay deals with T1, human IRAK4 (Homo sapiens, UniProt Q9NWZ3).
T1 construct: purchased Carna
T1 sequence (Q9NWZ3 1-460): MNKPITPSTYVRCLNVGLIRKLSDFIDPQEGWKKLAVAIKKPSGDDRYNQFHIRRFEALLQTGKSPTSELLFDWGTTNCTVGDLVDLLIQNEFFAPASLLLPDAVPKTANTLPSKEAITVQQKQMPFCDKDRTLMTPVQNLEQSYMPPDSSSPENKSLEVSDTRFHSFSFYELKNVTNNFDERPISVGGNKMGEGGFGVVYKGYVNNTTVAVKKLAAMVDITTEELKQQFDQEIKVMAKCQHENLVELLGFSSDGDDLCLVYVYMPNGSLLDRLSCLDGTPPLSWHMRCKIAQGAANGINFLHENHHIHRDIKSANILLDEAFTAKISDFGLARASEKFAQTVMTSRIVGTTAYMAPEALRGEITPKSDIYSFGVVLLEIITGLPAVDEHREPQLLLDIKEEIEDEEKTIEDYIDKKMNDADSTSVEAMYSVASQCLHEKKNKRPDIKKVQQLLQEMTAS
Kind of assay: IRAK4 MSA (Mobility-Shift Assay), inhibition of human IRAK4 kinase activity. The following applies: GST-IRAK4 1 nM, ATP at Km concentration (37 μM), 28° C. for 1 h, Caliper EZ Reader; read-out: IC50 against human IRAK4 kinase activity. The format is biochemical. How it is done: The inhibitory activity of the compounds against IRAK4 at the Km concentration of ATP was measured in IRAK4 MSA (Mobility-Shift Assay, a mobility detection of microfluidic chip technology).
A recombinant fusion protein of N-terminal GST (glutathione-S-transferase) and human IRAK4 was used as enzyme (GST-IRAK4, kinase IRAK4 (Carna)) at a final concentration of 1 nM; ATP (Sigma) was at a final concentration of 37 μM; the substrates used for the kinase reaction were 5-FAM (5-carboxyfluorescein)-labeled polypeptide (5-FAM-IPTSPITTTYFFFKKK-COOH) and substrate peptide FAM-P8 (GL Biochem) at final concentrations of 5 μM.
In this assay, a 500 μM stock solution of the compounds was prepared in 100% DMSO, and serially 4-fold diluted to the 10th concentrations with 100% DMSO, followed by a 10-fold dilution with the compound buffer (50 mM HEPES, pH 7.5, 0.00015% Brij-35) to give intermediate dilutions of the compounds at final concentrations of 10 μM-0.04 nM containing 10% DMSO. The intermediate dilutions was transferred into a black 384-well plate at a volume of 5μL.
Kinase IRAK4 was diluted to 2.5 nM with the kinase buffer (50 mM HEPES, pH 7.5, 0.00015% Brij-35, 2 mM DTT). 10 μL of the IRAK4 dilution was transferred to the 384-well plate and co-incubated with the compound for 10-15 min.
The substrate and ATP were diluted to 12.5 μM and 92.5 μM with reaction buffer (50 mM HEPES, pH 7.5, 0.00015% Brij-35, 10 mM MgCl2), respectively. 10 μL of the dilutions was transferred to the 384-well plate and incubated at 28° C. for 1 h. The reaction was terminated by adding 25 μL of 50 mM EDTA to the 384-well plate.
The inhibition rates of IRAK4 by the compounds were calculated by measuring the conversion rate of phosphorylation of the substrate using a Caliper EZ Reader (PerkinElmer) and the IC50 was calculated by XL-fit software.
Turning to `COc1cc2nn([C@H]3CC[C@](C)(O)CC3)cc2cc1NC(=O)c1cccc(C)[n+]1[O-]` [Compound 4, 6-methyl-1oxo-pyridine-2-carbomoylic acid [2-(4′-hydroxy-4-methyl-cyclohexyl)-6-methoxy-2H-indazol-5-yl]-amide], the IC50 was found to be 4.6 nM.

Consider `COc1cc2nn([C@H]3CC[C@H](O)CC3)cc2cc1NC(=O)c1cccc(C2CC2)[n+]1[O-]` [Compound 2, 6-cyclopropyl-1-oxy-pyridine-2-carbomoylic acid [2-(4′-hydroxy-trans-cyclohexyl)-6-methoxy-2H-indazol-5-yl]-amide], for which the IC50 was 2.5 nM.

For “quinoline-8-carbomoylic acid [2-(4′-hydroxy-4-methyl-cyclohexyl)-6-methoxy-2H-indazol-5-yl]-amide [Compound 3]”, the 50% inhibitory concentration (IC50) turned out to be 3.3 nM.

As to `COc1cc2nn([C@H]3C[C@H](C(C)(C)O)C3)cc2cc1NC(=O)c1cccc(C(F)(F)F)n1` [Compound 1, 6-trifluoromethyl-pyridine-2-carbomoylic acid {2-[3′-(1-hydroxy-1-methyl-ethyl)-cyclobutyl]-6-methoxy-2H-indazol-5-yl} -amide], the concentration for half-maximal inhibition (IC50) is 1.1 nM.

A word on the IC50: it is the concentration at which inhibition is half-maximal.
